The record followed here is patent US8716292B2, “Riminophenazines with 2-(heteroaryl)amino substituents and their anti-microbial activity” (priority 2010, dated 2014).

Values after ≈ are worked out from the molar mass of the structure shown. Where two headings read alike, the source gives them in different places. Bounds are passed on as bounds.

This assay relates to Mycobacterium tuberculosis H37Rv strains. Put plainly: In vitro assay for antimicrobial susceptibility (microplate Alamar blue MIC). It counts as cell-based. The settings on record: for MIC: Mycobacterium tuberculosis, H37RV, read-out: MIC (μg/mL) against H37Rv. For orientation: Resazurin is reduced to fluorescent resorufin, in cell work by metabolically active cells.
The mark [1] stands for this setting: in vitro, Mycobacterium tuberculosis H37Rv strains.
[2] abbreviates: 7H9, Alamar blue, inhibition ≧90%.

Take `Cc1ccc(-n2c3c/c(=N\C4CCC(O)CC4)c(Nc4ccc(C)nc4)cc-3nc3ccccc32)cc1` (stereo not drawn) [TBI-334, 5-(4-Methylphenyl)-3-(4-hydroxycyclohexyl)imino-2-(6-methyl-3-pyridyl)amino-3,5-dihydrophenazine]: the MIC under setting [1] is 0.372 µg/mL (≈ 0.76 µM).
`COc1ccc(Nc2cc3nc4ccccc4n(-c4ccc(C)cc4)c-3c/c2=N\C(C)C)cn1` [TBI-356, 5-(4-Methylphenyl)-3-(1-methylethyl)imino-2-(6-methoxy-3-pyridyl)amino-3,5-dihydrophenazine]: under setting [1], the MIC stood at 0.459 µg/mL (≈ 1.02 µM).
Still for that read-out and setting: the same measure for `COc1ncccc1Nc1cc2nc3ccccc3n(-c3cccc(Cl)c3)c-2c/c1=N\C1CC1` [TBI-823, 5-(3-Chlorophenyl)-3-cyclopropylimino-2-(2-methoxy-3-pyridyl)amino-3,5-dihydrophenazine]: 0.03 µg/mL (≈ 0.0641 µM).
Same read-out and setting: the same measure for `COC1CCC(/N=c2\cc3n(-c4ccc(Cl)cc4)c4ccc(F)cc4nc-3cc2Nc2ccc(C)nc2)CC1` (stereo not drawn) [TBI-938, 8-Fluoro-5-(4-chlorophenyl)-3-(4-methoxycyclohexyl)imino-2-(6-methyl-3-pyridyl)amino-3,5-dihydrophenazine]: 0.125 µg/mL (≈ 0.231 µM); for `Cc1cncc(Nc2cc3nc4ccccc4n(-c4ccccc4)c-3c/c2=N\C(C)C)c1` [TBI-081, 5-Phenyl-3-(1-methylethyl)imino-2-(5-methyl-3-pyridyl)amino-3,5-dihydrophenazine]: 0.117 µg/mL (≈ 0.279 µM); for `COc1ccc(Nc2cc3nc4ccccc4n(-c4ccc(F)cc4)c-3c/c2=N\[C@H]2CC[C@H](OC)CC2)cn1` [TBI-933, 5-(4-Fluorophenyl)-3-(1′,4′-trans-4-methoxycyclohexyl)imino-2-(6-methoxy-3-pyridyl)amino-3,5-dihydrophenazine]: 0.175 µg/mL (≈ 0.334 µM).
The same measure, in the same setting: the same measure for `COc1ncccc1Nc1cc2nc3ccc(F)cc3n(-c3ccc(OC(F)(F)F)cc3)c-2c/c1=N\C1CCCCC1` [TBI-856, 7-Fluoro-5-(4-trifluoromethoxyphenyl)-3-cyclohexylimino-2-(2-methoxy-3-pyridyl)amino-3,5-dihydrophenazine]: 0.029 µg/mL (≈ 0.0502 µM).
On to `CSc1cccc(-n2c3c/c(=N\C(C)C)c(Nc4cccnc4)cc-3nc3ccccc32)c1` [TBI-454, 5-(3-Methylthiophenyl)-3-(1-methylethyl)imino-2-(3-pyridyl)amino-3,5-dihydrophenazine], for which the MIC under setting [1] came to 0.213 µg/mL (≈ 0.472 µM).
On the same count and under the same terms, the result for `Cc1ccc(Nc2cc3nc4cc(F)ccc4n(-c4ccc(Cl)c(Cl)c4)c-3c/c2=N\C(C)C)cn1` [TBI-887, 8-Fluoro-5-(3,4-dichlorophenyl)-3-(1-methylethyl)imino-2-(6-methyl-3-pyridyl)amino-3,5-dihydrophenazine] reads 0.062 µg/mL (≈ 0.122 µM); that for `COc1ncccc1Nc1cc2nc3ccccc3n(-c3ccc(Br)cc3)c-2c/c1=N\C1CCC(OC)CC1` (stereo not drawn) [TBI-521, 5-(4-Bromophenyl)-3-(4-methoxycyclohexyl)imino-2-(2-methoxy-3-pyridyl)amino-3,5-dihydrophenazine], 0.031 µg/mL (≈ 0.053 µM).
Still for that read-out and setting: the result for `Cc1ccc(-n2c3c/c(=N\C4CCCCC4)c(Nc4cccnc4)cc-3nc3ccccc32)cc1` [TBI-333, 5-(4-Methylphenyl)-3-cyclohexylimino-2-(3-pyridyl)amino-3,5-dihydrophenazine] reads 0.061 µg/mL (≈ 0.133 µM); that for `COc1ncccc1Nc1cc2nc3ccccc3n(-c3ccccc3OC(F)(F)F)c-2c/c1=N\C1CCOCC1` [TBI-1045, 5-(2-Trifluoromethoxyphenyl)-3-(4-tetrahydropyranyl)imino-2-(2-methoxy-3-pyridyl)amino-3,5-dihydrophenazine], 0.4 µg/mL (≈ 0.712 µM).
For the molecule `COc1ncccc1Nc1cc2nc3ccc(F)cc3n(-c3ccc(OC(F)(F)F)cc3)c-2c/c1=N\C1CC1` [TBI-857], under setting [1], the MIC was found to be 0.045 µg/mL (≈ 0.084 µM).
Turning to `Fc1ccc(-n2c3c/c(=N\C4CCN(C5CCCC5)CC4)c(Nc4cccnc4)cc-3nc3ccccc32)cc1` [TBI-684, 5-(4-Fluorophenyl)-3-(N-cyclopentyl-4-piperidyl)imino-2-(3-pyridyl)amino-3,5-dihydrophenazine], the MIC under setting [1] was determined as 0.5 µg/mL (≈ 0.939 µM).
Same read-out and setting: the result for `Clc1ccccc1-n1c2c/c(=N\C3CCCCC3)c(Nc3cccnc3)cc-2nc2ccccc21` [TBI-891, 5-(2-Chlorophenyl)-3-cyclohexylimino-2-(3-pyridyl)amino-3,5-dihydrophenazine] reads 0.036 µg/mL (≈ 0.075 µM).
In the case of `COc1ncccc1Nc1cc2nc3ccc(F)cc3n(-c3ccc(Cl)cc3)c-2c/c1=N\C(C)C` [TBI-926, 7-Fluoro-5-(4-chlorophenyl)-3-(1-methylethyl)imino-2-(2-methoxy-3-pyridyl)amino-3,5-dihydrophenazine], the “MIC (μg/mL) against H37Rv” value under setting [1] stood at 0.103 µg/mL (≈ 0.211 µM).
Consider `COc1nc(C)ccc1Nc1cc2nc3ccccc3n(-c3ccc(F)cc3)c-2c/c1=N\C(C)C` [TBI-1092, 5-(4-Fluorophenyl)-3-(1-methylethyl)imino-2-(2-methoxy-6-methyl-3-pyridyl)amino-3,5-dihydrophenazine], for which, under setting [1], the MIC came out at 0.424 µg/mL (≈ 0.907 µM).
The same measure, in the same setting: the same measure for `Cc1ccc(-n2c3c/c(=N\C4CCC4)c(Nc4ccc(C)nc4)cc-3nc3ccccc32)cc1` [TBI-346, 5-(4-Methylphenyl)-3-cyclobutylimino-2-(6-methyl-3-pyridyl)amino-3,5-dihydrophenazine]: 0.058 µg/mL (≈ 0.13 µM); for `COc1ncccc1Nc1cc2nc3ccccc3n(-c3ccc(C(F)(F)F)cc3)c-2c/c1=N\C1CCCCC1` [TBI-710, 5-(4-Trifluoromethylphenyl)-3-cyclohexylimino-2-(2-methoxy-3-pyridyl)amino-3,5-dihydrophenazine]: 0.03 µg/mL (≈ 0.0552 µM).
Still for that read-out and setting: the result for `COc1ncccc1Nc1cc2nc3ccccc3n(-c3ccc(C)cc3)c-2c/c1=N\CCN1CCOCC1` [TBI-311, 5-(4-Methylphenyl)-3-(2-morpholinoethyl)imino-2-(2-methoxy-3-pyridyl)amino-3,5-dihydrophenazine] reads 0.125 µg/mL (≈ 0.24 µM).
Regarding `CC(C)/N=c1\cc2n(-c3ccc(Cl)cc3)c3ccccc3nc-2cc1Nc1cnccn1` [TBI-1077], under setting [2], the MIC is < 0.0075 µg/mL.
As for `CC(C)/N=c1\cc2n(-c3cccc(OC(F)(F)F)c3)c3ccccc3nc-2cc1Nc1cccnc1` [TBI-1019], the MIC under setting [1] amounted to 0.057 µg/mL (≈ 0.116 µM).
For the molecule `COc1ncccc1Nc1cc2nc3ccccc3n(-c3ccc(Cl)cc3Cl)c-2c/c1=N\C1CCC(OC)CC1` (stereo not drawn) [TBI-371, 5-(2,4-Dichlorophenyl)-3-(4-methoxycyclohexyl)imino-2-(2-methoxy-3-pyridyl)amino-3,5-dihydrophenazine], the MIC under setting [1] came to 0.044 µg/mL (≈ 0.0766 µM).
As to `COc1ncccc1Nc1cc2nc3ccc(F)cc3n(-c3ccc(OC(F)(F)F)cc3)c-2c/c1=N\C(C)C` [TBI-858, 7-Fluoro-5-(4-trifluoromethoxyphenyl)-3-(1-methylethyl)imino-2-(2-methoxy-3-pyridyl)amino-3,5-dihydrophenazine], the MIC under setting [1] was found to be 0.08 µg/mL (≈ 0.149 µM).
Regarding `CC(C)/N=c1\cc2n(-c3ccc(Cl)cc3)c3ccccc3nc-2cc1Nc1ncccc1C#N` [TBI-1075, 5-(4-Chlorophenyl)-3-(1-methylethyl)imino-2-(3-cyano-2-pyridyl)amino-3,5-dihydrophenazine], under setting [2], the MIC amounted to 0.016 µg/mL (≈ 0.0344 µM).
Consider `COc1ccc2nc3cc(Nc4ccc(C)nc4)/c(=N/C4CCC(OC)CC4)cc-3n(-c3ccc(Cl)cc3)c2c1` (stereo not drawn) [TBI-867, 7-Methoxy-5-(4-chlorophenyl)-3-(4-methoxycyclohexyl)imino-2-(6-methyl-3-pyridyl-amino)-3,5-dihydrophenazine], for which, under setting [1], the MIC was found to be 0.058 µg/mL (≈ 0.105 µM).
As to `Cc1cncc(Nc2cc3nc4ccccc4n(-c4ccccc4)c-3c/c2=N\C2CCCCC2)c1` [TBI-082, 5-Phenyl-3-cyclohexylimino-2-(5-methyl-3-pyridyl)amino-3,5-dihydrophenazine], the MIC under setting [1] was 0.111 µg/mL (≈ 0.242 µM).
